TGI data for ten compounds are collected here from PubChem BioAssay (NCI).

Test in all cases: NCI tumour cell line growth inhibition, 48 h
Assay [1] deals with NCI-H522 lung.
Assay [2] concerns MDA-N.
In assay [3] the test system is COLO 205 colon.
Assay [4] deals with OVCAR-3 ovarian.
Assay [5] concerns KM12 colon.
Assay [6] deals with RPMI-8226 leukemia.
The subject of assay [7] is 786-0 renal.
In assay [8] the test system is T-47D breast.
For assay [9], the system named is HCT-15 colon.
For assay [10], the system named is HOP-62 NSCLC.
Assay [11] relates to MOLT-4 leukemia.
Assay [12] concerns M14 melanoma.
Assay [13] relates to HT29 colon.
The test system of assay [14] is SK-MEL-2 melanoma.
The test system of assay [15] is MDA-MB-231 breast.
The test system of assay [16] is SR leukemia.
Assay [17] deals with UACC-62 melanoma.
In assay [18] the test system is SK-MEL-5 melanoma.

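Exposure lasted 48 hours, with cells grown in 96-well plates and compounds tested at five concentrations. TGI: concentration producing complete growth inhibition.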

`CC(C)CC1c2[nH]c3ccccc3c2C[C@H]2C(=O)NC(CCCCNC(=O)OC(C)(C)C)C(=O)N12` (stereo not given in full): the TGI is 72.3 µM in assay [1]; above 100 µM in [2]; 72.2 µM in assay [3]; 16.6 µM in [4]; above 100 µM in assay [5]; 58.5 µM in assay [6]. Besides, the TGI in [7] is 50.7 µM; in assay [8], 16.1 µM; in [9], above 100 µM; in assay [10], above 100 µM; in assay [11], 51.8 µM; in assay [12], above 100 µM. The TGI was 64.6 µM in assay [13]; 46.8 µM in [14]; 51.1 µM in assay [15]; 50 µM in assay [16]; above 100 µM in assay [17]; above 100 µM in [18].

For `O=[N+]([O-])c1ccc(C2=NOC(c3ccc(Cl)cc3)N2C23CC4CC(CC(C4)C2)C3)cc1` (stereo not given), the TGI in [1], in assay [2], in assay [3], in [4], in assay [5] and in [6] was above 100 µM each time. Further, the TGI in assay [7], in [8], in [9], in assay [10], in assay [11] and in assay [12] was above 100 µM each time. In addition, the TGI in assay [13], in assay [14], in assay [15], in assay [16], in [17] and in [18] was above 100 µM in each case.

For `N#Cc1ncn(CCO)c1N`, the TGI in assay [1], in assay [2], in assay [3], in assay [4], in assay [5] and in assay [6] was above 100 µM each time. The TGI in [7], in [8], in assay [9], in assay [10], in assay [11] and in [12] was above 100 µM each time. Also, the TGI in assay [13], in assay [14], in [15], in assay [16], in [17] and in assay [18] was above 100 µM each time.

For `CC(C)[Si]1(C(C)C)OCC2OC(n3c(C(=O)c4ccccc4)cc(=O)[nH]c3=O)CC2O[Si](C(C)C)(C(C)C)O1` (stereo not given), the TGI in [1] was 3.55 µM; in [2], 11.7 µM; in assay [3] it was 10.8 µM; in [4] it was 5.09 µM; in assay [5] it was 8.51 µM; in assay [6], above 23.3 µM. The TGI came out at 9.87 µM in [7]; 16 µM in assay [8]; 7.89 µM in assay [9]; 21.3 µM in assay [10]; 4.76 µM in assay [11]; 14.4 µM in assay [12]. For the same compound, the TGI was 4.22 µM in [13]; 10.6 µM in assay [14]; 5.67 µM in [15]; above 23.8 µM in [16]; 7.62 µM in assay [17]; 14 µM in assay [18].

For the compound `COc1cc(/C=N/c2ccccn2)cc(OC)c1OC`, the TGI in assay [1] is above 100 µM; in assay [2] it was above 59.4 µM; in [3] it was above 100 µM; in [4], above 100 µM; in assay [5] it was above 100 µM; in assay [6], above 100 µM. For the same compound, the TGI in assay [7], in assay [8], in assay [9], in [10], in assay [11] and in assay [12] was above 100 µM throughout. Moreover, the TGI in assay [13], in assay [14], in assay [15], in [16], in assay [17] and in assay [18] was above 100 µM each time.

`COc1ccc(NC(=O)CC(=O)NNC(Sc2ccccc2)c2cc(N=Nc3ccc(Br)cc3)ccc2O)cc1` (stereo not given): the TGI in assay [1], in assay [2], in [3], in assay [4], in [5] and in assay [6] was above 10 µM each time. The TGI in assay [7], in assay [8], in [9], in assay [10], in assay [11] and in assay [12] was above 10 µM throughout. The TGI in assay [13], in assay [14], in assay [15], in [16], in [17] and in assay [18] was above 10 µM throughout.

For the compound `COC1CC(C)([N+](=O)[O-])C(O)C(C)O1` (stereo not given), the TGI in assay [1], in assay [2], in [3], in assay [4], in [5] and in [6] was above 100 µM in each case. For the same compound, the TGI in [7], in assay [8], in [9], in [10], in assay [11] and in assay [12] was above 100 µM in each case. Further, the TGI in assay [13], in assay [14], in [15], in assay [16], in [17] and in assay [18] was above 100 µM each time.

Take `NC(=O)C(=CNC(=S)Nc1ccc(S(=O)(=O)Nc2ccccn2)cc1)C(N)=O`: the TGI in [1], in assay [2], in [3], in assay [4], in assay [5] and in assay [6] was above 100 µM in each case. The TGI in assay [7] is above 100 µM; in assay [8], above 100 µM; in assay [9] it was above 100 µM; in assay [10] it was above 100 µM; in assay [11], 5.76 µM; in [12] it was above 100 µM. In addition, the TGI in assay [13], in assay [14], in [15], in assay [16], in [17] and in assay [18] was above 100 µM throughout.

For `CCN(CC)c1ccc2cc(C(=O)NCc3ccccc3)c(=N)oc2c1`, the TGI in assay [1] was 97.3 µM; in assay [2] it was above 100 µM; in assay [3] it was above 59.7 µM; in assay [4], above 100 µM; in assay [5], above 100 µM; in [6], above 59.7 µM. The TGI in [7] was above 100 µM; in [8] it was above 28.6 µM; in assay [9], above 100 µM; in assay [10], above 100 µM; in [11], above 100 µM; in assay [12], above 100 µM. For the same compound, the TGI in assay [13] is 36 µM; in assay [14], above 100 µM; in [15], 97 µM; in assay [16], above 100 µM; in [17] it was above 100 µM; in assay [18] it was above 100 µM.

On to `CC(=O)Oc1c(OC(C)C)c(C)c(O[Si](C(C)C)(C(C)C)C(C)C)c2[nH]c3ccccc3c12`, for which the TGI in [1], in [2], in [3], in assay [4], in assay [5] and in [6] was above 100 µM each time. The TGI in assay [7] was above 100 µM; in [8], above 100 µM; in [9], above 100 µM; in assay [10] it was above 100 µM; in [11], above 24.2 µM; in [12], above 100 µM. Also, the TGI was above 100 µM in assay [13]; above 100 µM in assay [14]; above 100 µM in [15]; 99.3 µM in [16]; above 100 µM in assay [17]; above 100 µM in [18].
